Data on 15 compounds can be found in patent publication US9650339B2, “Inhibitors of histone demethylases” (Gilead Sciences, Inc., priority 2013, dated 2017).

The target in one assay is T1, KDM4C (Homo sapiens, UniProt Q9H3R0).
T1 construct: Full length; host or cells: U2OS
T1 sequence (Q9H3R0 1-1056): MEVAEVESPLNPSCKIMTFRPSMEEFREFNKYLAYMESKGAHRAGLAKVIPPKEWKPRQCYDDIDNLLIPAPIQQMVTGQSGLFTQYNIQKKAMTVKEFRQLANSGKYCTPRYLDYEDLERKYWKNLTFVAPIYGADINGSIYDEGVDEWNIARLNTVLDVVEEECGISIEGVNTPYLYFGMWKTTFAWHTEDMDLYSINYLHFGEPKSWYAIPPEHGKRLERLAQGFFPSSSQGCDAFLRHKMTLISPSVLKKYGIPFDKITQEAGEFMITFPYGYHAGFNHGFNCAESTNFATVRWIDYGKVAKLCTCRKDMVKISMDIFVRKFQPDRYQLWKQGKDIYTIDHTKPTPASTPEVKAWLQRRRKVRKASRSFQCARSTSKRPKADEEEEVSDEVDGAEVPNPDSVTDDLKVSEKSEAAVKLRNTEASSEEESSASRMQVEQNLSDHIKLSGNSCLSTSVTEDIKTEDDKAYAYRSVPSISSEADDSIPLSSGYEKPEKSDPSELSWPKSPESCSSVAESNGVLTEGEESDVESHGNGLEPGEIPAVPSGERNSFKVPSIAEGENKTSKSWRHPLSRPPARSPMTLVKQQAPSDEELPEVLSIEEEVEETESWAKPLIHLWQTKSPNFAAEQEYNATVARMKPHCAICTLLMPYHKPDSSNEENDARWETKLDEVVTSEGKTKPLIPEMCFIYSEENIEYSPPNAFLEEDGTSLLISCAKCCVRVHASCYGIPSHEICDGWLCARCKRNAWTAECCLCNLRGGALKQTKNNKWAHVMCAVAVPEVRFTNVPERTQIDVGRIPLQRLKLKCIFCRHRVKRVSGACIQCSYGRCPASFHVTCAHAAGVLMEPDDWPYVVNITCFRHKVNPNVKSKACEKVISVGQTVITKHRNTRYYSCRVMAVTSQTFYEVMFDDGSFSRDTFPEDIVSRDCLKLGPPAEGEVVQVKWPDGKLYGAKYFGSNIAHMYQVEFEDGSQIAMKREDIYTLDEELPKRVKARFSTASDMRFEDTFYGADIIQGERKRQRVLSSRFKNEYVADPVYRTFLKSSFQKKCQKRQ
Description: Histone lysine demethylase immunofluorescence assay, U2OS cells transfected with KDM4C. The class given is cell-based. The note with it: U2OS cells transfected with pCMVHA KDM4C; mark detected H3K9me3; 20 hours. Put shortly: (§1)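 U2OS cells were transiently transfected with HA-tagged demethylase and reseeded after 6 h into compound-containing DMEM/10% FBS for 20 h. Cells were fixed in formaldehyde and immunostained for HA and the relevant histone methyl mark, then imaged. IC50 is based on mean mark staining in HA+ transfected cells.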

The next assay addresses T2, KDM5B (Homo sapiens, UniProt Q9UGL1).
T2 construct: (a.a. 1-752); host or cells: U2OS
T2 sequence (Q9UGL1 1-752): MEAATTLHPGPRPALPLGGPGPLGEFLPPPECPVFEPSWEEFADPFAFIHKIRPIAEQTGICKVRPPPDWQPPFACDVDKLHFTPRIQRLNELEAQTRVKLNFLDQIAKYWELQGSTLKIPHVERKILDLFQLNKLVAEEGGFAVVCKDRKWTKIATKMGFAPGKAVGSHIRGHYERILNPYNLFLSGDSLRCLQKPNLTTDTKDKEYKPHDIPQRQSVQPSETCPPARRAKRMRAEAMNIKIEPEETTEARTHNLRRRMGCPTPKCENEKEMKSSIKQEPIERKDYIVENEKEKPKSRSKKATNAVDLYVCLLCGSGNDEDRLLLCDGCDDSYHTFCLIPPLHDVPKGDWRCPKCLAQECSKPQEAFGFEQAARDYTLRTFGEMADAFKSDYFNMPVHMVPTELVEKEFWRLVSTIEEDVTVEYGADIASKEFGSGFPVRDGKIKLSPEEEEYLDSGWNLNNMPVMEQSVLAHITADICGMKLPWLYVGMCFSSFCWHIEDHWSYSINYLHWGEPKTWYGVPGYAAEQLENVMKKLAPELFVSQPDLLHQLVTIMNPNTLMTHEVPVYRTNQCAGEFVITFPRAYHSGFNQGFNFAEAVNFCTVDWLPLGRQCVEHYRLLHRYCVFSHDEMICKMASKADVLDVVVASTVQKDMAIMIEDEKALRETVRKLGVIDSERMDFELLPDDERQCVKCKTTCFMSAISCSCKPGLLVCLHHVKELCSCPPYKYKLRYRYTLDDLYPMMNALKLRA
The assay is described as follows: Histone lysine demethylase immunofluorescence assay, U2OS cells transfected with KDM5B. The class given is cell-based. As to conditions: U2OS cells transfected with pCMVHA KDM5B; mark detected H3K4me2; 20 hours. Put shortly:
as §1

Bounds are passed on as bounds.

For `CCN(CC)CCCCN(Cc1cc(C=O)ccn1)C(=O)C(F)(F)F` [Compound 115, N-[4-(diethylamino)butyl]-2,2,2-trifluoro-N-[(4-formylpyridin-2-yl)methyl]acetamide], the IC50 against KDM4C was 250 to 2500 nM; at KDM5B, < 250 nM.

On to `CN(C)C/C=C/CNCc1cc(/C=N/C2CC2)ccn1` [Compound 43, N-{[2-({[(2E)-4-(dimethylamino)but-2-en-1-yl]amino}-methyl)pyridin-4-yl]methylidene}-cyclopropanamine], for which the IC50 against KDM4C was 250 to 2500 nM; against KDM5B it was < 250 nM.

On to `CN(C)CC1CCC(CNCc2cc(/C=N/C3CC3)ccn2)CC1` (stereo not drawn) [Compound 46, N-[(2-{[({4-[(dimethylamino)-methyl]cyclohexyl}-methyl)amino]-methyl}pyridin-4-yl)methylidene]-cyclopropanamine], for which the IC50 is 250 to 2500 nM against KDM4C and < 250 nM at KDM5B.

For `CON=Cc1ccnc(CNCCCN(C)C)c1` [Compound 64, [3-(dimethylamino)-propyl]({4-[(methoxyimino)-methyl]pyridin-2-yl}methyl)amine], the IC50 against KDM4C and at KDM5B was > 2500 nM in each case.

Turning to `CN(CCCNCc1cc(/C=N/C2CC2)ccn1)Cc1ccccc1` [Compound 41, N-({2-[({3-[benzyl(methyl)amino]-propyl}amino)methyl]-pyridin-4-yl}methylidene)-cyclopropanamine], the IC50 against KDM4C and against KDM5B was 250 to 2500 nM throughout.

As to `CN1CCC(CNCc2cc(C=O)ccn2)CC1` [Compound 100, 2-({[(1-methyl-piperidin-4-yl)methyl]amino}-methyl)pyridine-4-carbaldehyde], the IC50 against KDM4C is 250 to 2500 nM; against KDM5B, < 250 nM.

Regarding `C#CCN(C)C(=O)CNCc1cc(/C=N/C2CC2)ccn1` [Compound 56, 2-[({4-[N-cyclopropyl-carboximidoyl]-pyridin-2-yl}methyl)amino]-N-methyl-N-(prop-2-yn-1-yl)acetamide], the IC50 against KDM4C and against KDM5B was > 2500 nM each time.

With `CCN(CCN(C)C)C(=O)CNCc1cc(C=O)ccn1` [Compound 101], the IC50 was 250 to 2500 nM at KDM4C and < 250 nM against KDM5B.

For `CN(C)CCCCNCc1cc(/C=N\C2CC2)ccn1` [Compound 45, N-{[2-({[4-(dimethylamino)butyl]-amino}methyl)-pyridin-4-yl]methylidene}-cyclopropanamine], the IC50 against KDM4C is 250 to 2500 nM; against KDM5B, < 250 nM.

`CN(C)CCCCNCc1cc(CNC2CC2)ccn1` [Compound 10, N-{[2-({[4-(dimethylamino)butyl]-amino}methyl)pyridin-4-yl]methyl}-cyclopropanamine]: the IC50 at KDM4C and against KDM5B was > 2500 nM throughout.

Regarding `CCN(CC)CCCCNCc1cc(CN)ccn1` [Compound 5, [2-({[4-(diethylamino)butyl]-amino}methyl)pyridin-4-yl]methanamine], the IC50 against KDM4C was 250 to 2500 nM; against KDM5B, < 250 nM.

`CN(CC(=O)N1CCCCC1)Cc1cc(C=O)ccn1` [Compound 120, 2-({methyl[2-oxo-2-(piperidin-1-yl)ethyl]amino}-methyl)pyridine-4-carbaldehyde]: the IC50 at KDM4C and against KDM5B was > 2500 nM in each case.

Take `CCN(CCN(C)C)C(=O)CNCc1cc(CN)ccn1` [Compound 4, 2-({[4-(aminomethyl)pyridin-2-yl]methyl}amino)-N-[2-(dimethylamino)ethyl]-N-ethylacetamide]: the IC50 on KDM4C was 250 to 2500 nM; at KDM5B, < 250 nM.

`CCN(CCC#N)C(=O)CNCc1cc(/C=N/CCO)ccn1` [Compound 94, N-(2-cyanoethyl)-N-ethyl-2-[({4-[[(2-hydroxyethyl)imino]-methyl]pyridin-2-yl}methyl)amino]-acetamide]: the IC50 on KDM4C is > 2500 nM; on KDM5B, 250 to 2500 nM.

Consider `CN(C)CCCCCNCc1cc(C=O)ccn1` [Compound 114, 2-({[5-(dimethylamino)-pentyl]amino}methyl)-pyridine-4-carbaldehyde], for which the 50% inhibitory concentration (IC50) against KDM4C was > 2500 nM; against KDM5B it was < 250 nM.
